According to ChEMBL document CHEMBL1201862, “PubChem BioAssay data set” (2004):
Values belong to the compound of their own block, whether it stands above or below them. Calls of active or inactive are those of the source.

What was measured:
Hexokinase = target: T1, Hexokinase (Trypanosoma brucei, UniProt Q38C41); experiment: Confirmation assay for inhibitors of Trypanosoma brucei hexokinase 1-Analogue-first series. [Related pubchem assays (depositor defined):AID1430, AID1632, AID2516, AID2560, AID2579, AID2600, AID449725, AID492951]; format: functional
T1 sequence (Q38C41 whole entry): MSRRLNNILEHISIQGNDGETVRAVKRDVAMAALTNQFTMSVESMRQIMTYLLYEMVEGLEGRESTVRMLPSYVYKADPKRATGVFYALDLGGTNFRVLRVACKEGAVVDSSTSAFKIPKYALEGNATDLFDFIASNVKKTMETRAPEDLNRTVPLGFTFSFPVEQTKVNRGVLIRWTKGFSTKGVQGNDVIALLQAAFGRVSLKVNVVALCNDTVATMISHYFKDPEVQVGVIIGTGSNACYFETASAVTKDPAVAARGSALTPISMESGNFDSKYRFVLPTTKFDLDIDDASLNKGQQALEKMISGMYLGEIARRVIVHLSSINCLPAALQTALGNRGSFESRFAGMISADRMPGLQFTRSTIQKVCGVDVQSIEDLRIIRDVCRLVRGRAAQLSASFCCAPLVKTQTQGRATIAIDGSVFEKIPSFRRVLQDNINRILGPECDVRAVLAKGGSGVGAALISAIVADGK

Paired box protein Pax-8 = Paired box protein Pax-8 (Homo sapiens, UniProt Q06710); experiment: PAX8 transcriptional activity inhibition in RMG-I – RMG-I cells, luciferase, cherry-pick, dose response (AID 687027); format: functional, cell-based;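 also: luciferase reporter driven by Pax8 target thyroperoxidase promoter measured by SteadyGlo luminescence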
[1] = OVCAR8 cell viability loss – plate reader, dry powder samples, PAX8 project, dose response (AID 743197); format: functional, cell-based; settings: OVCAR-8
[2] = OVCAR-3 cell viability loss – plate reader, dry powder samples, PAX8 inhibitor project, dose response (AID 743044); format: functional, cell-based
[3] = NIH3T3 cell viability loss – ATP luminescence, mouse fibroblasts, counter-screen, dose response (AID 2010); format: functional, cell-based;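 also: cells exposed to compound for about 90 hours before reading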
Streptococcus = experiment: GAS UMAA2166 growth inhibition – luminescence, BacTiterGlo, counter-screen for streptokinase expression inhibitor project, dose response (AID 1915); format: functional, organism-based;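 also: potency for reduction of bacterial viability or growth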
BJ [4] = experiment: growth inhibition of engineered Ras-driven BJ cells – cell-based, alamar blue fluorescence, cherrypicked samples, dose response (AID 2631); format: functional; settings: Homo sapiens;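 also: confirmatory dose-response assay in RAS-dependent BJ fibroblasts engineered with TERT, LT and ST, with cytotoxicity read by fluorescence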
[5] = test system: Streptococcus sp. 'group A'; experiment: Streptococcus pyogenes SK(-)GAS viability under kanamycin – luminescence, BacTiterGlo, confirmation, counter-screen for streptokinase expression inhibitor project, dose response (AID 1900); format: functional, organism-based
[6] = Trypanosoma cruzi growth suppression in host cells – NIH3T3 host cells, beta-gal luminescence, confirmation (AID 2044); format: functional, cell-based;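 also: intracellular parasites grown in NIH/3T3 mouse fibroblasts as host cells; luminescent beta-galactosidase reporter signal from transgenic T. cruzi replicating inside host cells; inhibitors lower the luminescence signal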
H9c2 = experiment: cells; format: functional, cell-based; settings: Rattus norvegicus, H9c2, Myocardium;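 also: confirmatory concentration-response retest of ultra-high-throughput screening hits for modulation of myocardial damage; cell death induced by hydrogen peroxide oxidative stress; compound pretreatment for 60 min then peroxide exposure for 2 h; potency is for protecting the cells against peroxide damage rather than for killing them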
[7] = target: T2, Ubiquitin-conjugating enzyme E2 N (Homo sapiens, UniProt P61088); format: functional;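 also: Dose-response confirmation in a TR-FRET assay detecting UBC13-driven polyubiquitin chain formation, inhibition measured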
T2 sequence (P61088 whole entry): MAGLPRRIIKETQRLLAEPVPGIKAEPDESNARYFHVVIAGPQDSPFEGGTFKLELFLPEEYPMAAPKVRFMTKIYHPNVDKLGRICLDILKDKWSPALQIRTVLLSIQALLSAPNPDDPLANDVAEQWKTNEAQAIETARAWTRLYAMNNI

[8] = target: T3, Microphthalmia-associated transcription factor (Homo sapiens, UniProt O75030); experiment: reducers of TRPM1 reporter luminescence, concentration series – cell-based, SK-MEL-5, cherry-picked, set 3, MITF inhibitor project, dose response (AID 493073); format: functional;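 also: SK-MEL-5 melanoma cells with luciferase driven by the MITF target TRPM1 promoter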
T3 sequence (O75030 whole entry): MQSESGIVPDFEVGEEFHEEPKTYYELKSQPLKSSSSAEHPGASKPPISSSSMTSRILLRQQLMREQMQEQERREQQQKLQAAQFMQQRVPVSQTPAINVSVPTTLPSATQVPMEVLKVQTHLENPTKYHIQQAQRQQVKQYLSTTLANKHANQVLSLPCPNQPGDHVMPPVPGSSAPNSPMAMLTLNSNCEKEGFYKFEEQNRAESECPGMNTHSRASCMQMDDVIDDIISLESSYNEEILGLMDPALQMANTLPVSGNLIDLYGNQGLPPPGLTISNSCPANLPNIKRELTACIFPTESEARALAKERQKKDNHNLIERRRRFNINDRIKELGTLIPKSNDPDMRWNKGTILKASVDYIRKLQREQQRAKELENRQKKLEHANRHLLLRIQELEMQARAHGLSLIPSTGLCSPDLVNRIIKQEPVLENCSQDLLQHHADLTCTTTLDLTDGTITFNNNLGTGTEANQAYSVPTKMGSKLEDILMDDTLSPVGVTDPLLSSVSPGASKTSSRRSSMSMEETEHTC

[9] = HEK-293T viability loss after treatment – luminescence, T-cell screen hits, cytotoxicity control for TCR NF-kB inhibitor project, dose response (AID 489026); format: functional, cell-based;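 also: cells exposed to compound about 14 hours before the viability readout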
BJ [10] = experiment: cells; format: functional, cell-based; settings: Homo sapiens
BJ [11] = experiment: BJ-TERT-LT-ST fibroblast viability loss – cell-based, RAS-independent, luminescence, dose response (AID 1935); format: functional; settings: Homo sapiens;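 also: BJ fibroblasts immortalized with TERT plus LT and ST oncogenes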
[12] = DRD fibroblast viability loss – cell-based, non-viral oncogenic, luminescence, dose response (AID 1934); format: functional; settings: Homo sapiens
BJ [13] = experiment: BJ-TERT fibroblast viability loss – cell-based, RAS-independent, luminescence, dose response (AID 1933); format: functional; settings: Homo sapiens

Paired box protein Pax-8, sequence (Q06710 whole entry): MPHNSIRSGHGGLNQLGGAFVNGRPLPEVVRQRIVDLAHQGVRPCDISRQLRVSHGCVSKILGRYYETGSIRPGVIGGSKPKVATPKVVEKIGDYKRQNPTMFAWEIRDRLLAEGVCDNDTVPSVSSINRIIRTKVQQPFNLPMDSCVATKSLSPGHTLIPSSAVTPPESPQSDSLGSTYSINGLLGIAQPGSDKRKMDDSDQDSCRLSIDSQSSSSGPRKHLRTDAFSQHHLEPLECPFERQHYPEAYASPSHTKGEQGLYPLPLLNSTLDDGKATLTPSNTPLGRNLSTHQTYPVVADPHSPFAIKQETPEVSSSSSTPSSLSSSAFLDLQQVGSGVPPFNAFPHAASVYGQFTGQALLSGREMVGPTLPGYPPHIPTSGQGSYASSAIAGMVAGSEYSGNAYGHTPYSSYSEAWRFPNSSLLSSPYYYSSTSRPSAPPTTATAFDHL

SMILES: O=C(Nc1cc(Cl)ccc1C(=O)O)c1ccncc1
IC50 (Hexokinase): > 25 µM (inactive)

SMILES: C[C@H](CO)N1C[C@H](C)[C@H](CN(C)Cc2ccc(C(F)(F)F)cc2)OCCCC[C@H](C)Oc2ccc(NC(=O)CCC(F)(F)F)cc2C1=O
AC50 (Paired box protein Pax-8): 5.89 µM (active) | AC50 [1]: 63.8 µM (active) | AC50 [2]: 14.8 µM (active)

SMILES: CC1(C)N=C(N)N=C(N)N1c1ccc(Oc2ccc(Cl)cc2)c(Cl)c1
EC50 [3]: 14.3 µM (active) | EC50 (Streptococcus): 0.085 µM (active) | EC50 (BJ [4]): > 133 µM (inactive) | EC50 [5]: < 0.06 µM (active) | EC50 [6]: 0.177 µM (active)

SMILES: C[C@H]1CCCCO[C@@H](CN(C)Cc2ccc3c(c2)OCO3)[C@@H](C)CN([C@@H](C)CO)C(=O)c2cc(NC(=O)Nc3ccc(F)cc3)ccc2O1
AC50 (Paired box protein Pax-8): 22 µM (active) | AC50 [2]: 31.2 µM (active)

SMILES: CCCC(c1nnnn1C(C)(C)CC)N(CCCO)Cc1cc2cc(C)cc(C)c2nc1O (configuration not stated)
IC50 (H9c2): 38.7 µM (inactive)

SMILES: CCOC(=O)CSc1nnc(CSc2nc(O)c3ccccc3n2)n1-c1ccccc1
IC50 (H9c2): > 79 µM (inactive)

SMILES: COc1ccc(NC(=O)CCc2nc(O)c3ccccc3n2)cc1S(=O)(=O)N1CCCCC1
IC50 (H9c2): > 79 µM (inactive)

IC50 [7]: > 20 µM (inactive)
SMILES: COc1ccccc1NC(=O)COC(=O)C12CC3CC(CC(Br)(C3)C1)C2

AC50 [8]: 25.6 µM (active)
SMILES: O=S1(=O)CCC(NC(=S)SCc2ccccc2Br)C1 (configuration not stated)

SMILES: O=C(Nc1ccc(S(=O)(=O)Nc2ccc(F)cc2)cc1)c1ccc(CN2CCOCC2)cc1
IC50 [9]: > 80 µM (inactive)

SMILES: Clc1cccc(Cl)c1/C=N/Nc1c(Cl)cncc1Cl
EC50 (BJ [10]): > 150 µM (inconclusive) | EC50 (BJ [11]): 76.6 µM (active) | EC50 [12]: 4.33 µM (active) | EC50 (BJ [13]): 13.7 µM (active) | IC50 [9]: > 80 µM (inactive)
